From US20240131204A1, “Fractionated Dosing of a Phospholipid Ether Analog for the Treatment of Cancer” (Cellectar Biosciences, Inc., priority 2019, published 2024)

What was measured:
[1] = system: OPM-2 cell line (human multiple myeloma); experiment: OPM-2 multiple myeloma subcutaneous xenograft in CB17 SCID mice (tumor volume, doubling time, survival, body weight); assay type: in vivo; conditions: for tolerability: repeated/fractionated dosing versus the single equal dose
Protocol: The OPM-2 cell line (human multiple myeloma) was purchased from American Type Culture Collection (ATCC, Rockville, MD) and maintained in McCoy's 5a media supplemented with 10% fetal bovine serum. Female CB17 SCID mice approximately 5-7 weeks of age were injected subcutaneously with 1×10^7 viable cells (in ˜100 μL Dulbecco's PBS) into the right flank. The study was initiated when tumor size had reached a pre-determined size (approximately 150-200 mm3). The mice were given potassium iodide at a concentration of 0.1% in their drinking water to block possible free iodide in the drug formulation three days prior to injection and continuing through two weeks post-injection. Mice were randomly assigned to dose groups. Tumor volume was measured with a caliper during the course of the study. Tumor doubling time calculation TDT=D×log(2)/log(1+r/100), where D equals days between measurements and r=rate of growth; r/100=(V2−V1/V1)×100%. Statistical analysis: 1-way Anova, Dunnett's test.

[2] = Clinical trial: single bolus dose (Cohort 4) versus fractionated dose (Cohort 5); assay type: in vivo, human
Protocol: Dosing is based upon body surface area or BSA in millicuries/meter squared (mCi/m^2). Patients either received a single 30 minute infusion of 31.25 mCi/m^2 on day 1 or a 30 minute fractionated infusion dose of 15.625 mCi/m^2 on day 1 and then repeated on day 8.

[3] = system: xenograft, orthotopic and transgenic cancer and cancer stem cell derived animal models; experiment: Tumor selectivity, uptake and retention in animal tumor models; assay type: in vivo; conditions: variety of tumor models
[4] = system: xenograft, orthotopic and transgenic cancer and cancer stem cell derived animal models; conditions: radioiodinated CLR1404; cited from earlier work

Compound: ^131I-labeled 18-(p-iodo-phenyl)octadecyl phosphocholine [CLR 131]
- antitumor activity ([1]; all doses, model of multiple myeloma): marked antitumor activity
- survival ([1]; fractionated dosing): statistically significant survival benefit
- tumor doubling time ([1]; fractionated dosing versus all other treatments): markedly increased
- reduction in tumor volume vs control ([1]; fractionated dosing, after day 26): statistically significant reduction
- reduction in tumor volume vs all other treatments ([1]; fractionated dosing, day 52, p<0.05): statistically significant reduction
- tolerability [1]: well tolerated and better tolerated than the single equal dose
- average reduction in surrogate markers of efficacy ([2]; fractionated dose (Cohort 5)): 40%
- average progression free survival ([2]; fractionated dose (Cohort 5), assessment ongoing): 2.9 months
- median overall survival ([2]; fractionated dose, 15.625 mCi/m^2 on day 1 and day 8 (Cohort 5), assessment still ongoing): 7.4 months
- average progression free survival ([2]; single bolus dose (Cohort 4)): 2.8 months
- average reduction in surrogate markers of efficacy ([2]; single bolus dose (Cohort 4)): 29%
- median overall survival ([2]; single bolus dose, 31.25 mCi/m^2 on day 1 (Cohort 4)): 6.5 months

Compound: C[N+](C)(C)CCOP(=O)([O-])OCCCCCCCCCCCCCCCCCCc1ccc(I)cc1 [CLR1404]
- tolerability [1]: well tolerated and is better tolerated than a single equal dose
- sequestration and retention by cancer cells and cancer stem cells [3]: sequestered and selectively retained
- tumor selectivity (models showing it / models tested) [4]: 55/60
